Experimental data: patent EP2100894A1, “Pyridopyrimidines used as Plk1 (polo-like kinase) inhibitors” (4SC AG, priority 2008, dated 2009)

Target: T1, PIk1 (Homo sapiens, UniProt P53350)
T1 construct: His tag (histidine tag) (N); made in house; host or cells: SF9 insect cells
Assay: PIk1 kinase activity inhibition assay (33P incorporation into alpha casein, flash plates)
Format: biochemical
Details: recombinant N-terminally histidine-tagged PIk1, alpha casein as substrate, 100 nM Li-ATP, 80 minutes at 30°C
Description: The inhibition of PIk1 kinase activity can be measured using recombinant PIk1 protein expressed as an N-terminally histidine-tagged protein in SF9 insect cells and alpha casein as substrate. The PIk1 assay is run in 96 well plates by incubating 50 to 100 ng per well recombinant PIk1, 500 ng per well alpha casein (Sigma, # C-6780) as substrate, 10 µl of compound of invention (test compounds were dissolved as 20 mM solutions in dimethylsulfoxide (DMSO) and subsequently diluted), and 100 nM Li-ATP (including ^33P-ATP) in 100 µl of reaction buffer ([…], pH 7.5; 3 mM MgCl2; 3 mM MnCl2; 3 µM Na-Orthovanadat; 1 mM DTT; 1 µg/ml PEG 8000) for 80 minutes at 30°C. The reactions are terminated by adding 100 µl stopping buffer (2% H3PO4 for 5 minutes) and are washed 3 times with washing solution (0,9% NaCl). Determining ^33P incorporated into the protein substrate alpha casein, the detection is based on the adhesion of the phosphorylated protein to the surface of scintillator-coated flash plates (Perkin Elmer, USA; # SMP-200). Phosphorylation of alpha casein is measured by counting the radioactivity bound to the plate for 60 sec. using a plate reader (Perkin Elmer, USA; Wallac Microbeta). By this method, the IC50 value of the PIk1 inhibition is determined as described above. […]

T1 sequence (P53350 whole entry): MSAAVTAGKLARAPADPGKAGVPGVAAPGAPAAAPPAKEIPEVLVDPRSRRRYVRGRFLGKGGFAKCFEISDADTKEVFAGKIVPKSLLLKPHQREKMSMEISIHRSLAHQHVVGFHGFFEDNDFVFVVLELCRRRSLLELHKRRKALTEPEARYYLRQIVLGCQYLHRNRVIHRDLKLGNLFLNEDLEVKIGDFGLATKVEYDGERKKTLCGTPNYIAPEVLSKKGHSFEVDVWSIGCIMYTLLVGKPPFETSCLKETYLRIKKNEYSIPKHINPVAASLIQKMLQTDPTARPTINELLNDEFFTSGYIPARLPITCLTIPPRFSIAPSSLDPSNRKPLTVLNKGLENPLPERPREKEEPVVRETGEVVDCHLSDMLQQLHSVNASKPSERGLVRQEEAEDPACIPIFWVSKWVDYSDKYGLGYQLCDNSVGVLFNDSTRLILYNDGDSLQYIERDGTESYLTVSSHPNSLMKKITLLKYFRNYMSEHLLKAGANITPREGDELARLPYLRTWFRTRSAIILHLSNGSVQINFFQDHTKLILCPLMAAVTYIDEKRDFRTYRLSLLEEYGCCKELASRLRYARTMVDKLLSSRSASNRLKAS

Structure (SMILES) | IC50 [nM]
C/C=C/c1c(OC)c(=O)n(C)c2cnc(Nc3ccc(C(=O)Nc4cccnc4)cc3OC)nc12 [Example 28, 3-methoxy-4-({7-methoxy-5-methyl-6-oxo-8-[(1E)-prop-1-en-1-yl]-5,6-dihydropyrido[3,2-d]pyrimidin-2-yl}amino)-N-pyridin-3-ylbenzamide] | < 1000
COc1cc(C(=O)NC2CCN(C)CC2)ccc1Nc1ncc2c(n1)c(-c1cncnc1)c(OC)c(=O)n2C [Example 34, 3-methoxy-4-[(7-methoxy-5-methyl-6-oxo-8-pyrimidin-5-yl-5,6-dihydro-pyrido[3,2-d]pyrimidin-2-yl)amino]-N-(1-methylpiperidin-4-yl)benzamide] | < 1000
COc1cc(C(=O)NC2CCN(C)CC2)ccc1Nc1ncc2c(n1)c(-c1ccccc1C)c(OCC1CC1)c(=O)n2C [Example 71, 4-{[7-(cyclopropylmethoxy)-5-methyl-8-(2-methylphenyl)-6-oxo-5,6-dihydropyrido[3,2-d]pyrimidin-2-yl]amino}-3-methoxy-N-(1-methylpiperidin-4-yl)benzamide] | < 100
COc1cc(C(=O)NC2CCN(C)CC2)ccc1Nc1ncc2c(n1)c(-c1ccccc1)c(OC)c(=O)n2C [Example 3, 3-methoxy-4-[(7-methoxy-5-methyl-6-oxo-8-phenyl-5,6-dihydropyrido[3,2-d]pyrimidin-2-yl)amino]-N-(1-methylpiperidin-4-yl)benzamide] | < 100
COc1cc(C(=O)NC2CCN(C)CC2)ccc1Nc1ncc2c(cc(OCC3CCCC3)c(=O)n2C)n1 [Example 8, 4-{[7-(cyclopentylmethoxy)-5-methyl-6-oxo-5,6-dihydropyrido[3,2-d]pyrimidin-2-yl]amino}-3-methoxy-N-(1-methylpiperidin-4-yl)benzamide] | < 100
COc1cc(C(=O)NC2CCN(C)CC2)ccc1Nc1ncc2c(cc(OCc3ccccc3)c(=O)n2C)n1 [Example 1, 4-{[7-(benzyloxy)-5-methyl-6-oxo-5,6-dihydropyrido[3,2-d]pyrimidin-2-yl]amino}-3-methoxy-N-(1-methylpiperidin-4-yl)benzamide] | < 1000
CCc1cc(C(=O)NC2CCN(C)CC2)ccc1Nc1ncc2c(n1)c(-c1ccsc1)c(OCC1CC1)c(=O)n2C [Example 72, 4-{[7-(cyclopropylmethoxy)-5-methyl-6-oxo-8-(3-thienyl)-5,6-dihydro-pyrido[3,2-d]pyrimidin-2-yl]amino}-3-ethyl-N-(1-methylpiperidin-4-yl)benzamide] | < 10
COc1cc(C(=O)NC2CCN(C)CC2)ccc1Nc1ncc2c(n1)c(-c1cccnc1)c(OCC1CC1)c(=O)n2C [Example 69, 4-{[7-(cyclopropylmethoxy)-5-methyl-6-oxo-8-pyridin-3-yl-5,6-dihydro-pyrido[3,2-d]pyrimidin-2-yl]amino}-3-methoxy-N-(1-methylpiperidin-4-yl)benzamide] | < 10
COc1cc(C(=O)NCCC2CCCN2C)ccc1Nc1ncc2c(n1)c(-c1ccsc1)c(OCC1CC1)c(=O)n2C (centres unmarked) [Example 47, 4-{[7-(cyclopropylmethoxy)-5-methyl-6-oxo-8-(3-thienyl)-5,6-dihydropyrido[3,2-d]pyrimidin-2-yl]amino}-3-methoxy-N-[2-(1-methylpyrrolidin-2-yl)ethyl]benzamide] | < 10
COc1cc(C(=O)NC2CCN(C)CC2)ccc1Nc1ncc2c(n1)c(-c1cnn(C)c1)c(OC)c(=O)n2C [Example 35, 3-methoxy-4-{[7-methoxy-5-methyl-8-(1-methyl-1H-pyrazol-4-yl)-6-oxo-5,6-dihydropyrido[3,2-d]pyrimidin-2-yl]amino}-N-(1-methylpiperidin-4-yl)benzamide] | < 1000
COc1cc(C(=O)NC2CCN(C)CC2)ccc1Nc1ncc2c(n1)c(-c1ccc(C)cc1)c(OCC1CC1)c(=O)n2C [Example 62, 4-{[7-(cyclopropylmethoxy)-5-methyl-8-(4-methylphenyl)-6-oxo-5,6-dihydropyrido[3,2-d]pyrimidin-2-yl]amino}-3-methoxy-N-(1-methylpiperidin-4-yl)benzamide] | < 10
C/C=C/c1c(OCC2CC2)c(=O)n(C)c2cnc(Nc3ccc(C(=O)NC4CCN(C)CC4)cc3C)nc12 [Example 64, 4-({7-(cyclopropylmethoxy)-5-methyl-6-oxo-8-[(1E)-prop-1-en-1-yl]-5,6-dihydropyrido[3,2-d]pyrimidin-2-yl}amino)-3-methyl-N-(1-methylpiperidin-4-yl)benzamide] | < 10
C/C=C/c1c(OC2CC2)c(=O)n(C)c2cnc(Nc3ccc(C(=O)NC4CCN(C)CC4)cc3OC)nc12 [Example 56, 4-({7-(cyclopropyloxy)-5-methyl-6-oxo-8-[(1E)-prop-1-en-1-yl]-5,6-dihydropyrido[3,2-d]pyrimidin-2-yl}amino)-3-methoxy-N-(1-methylpiperidin-4-yl)benzamide] | < 10
C#Cc1c(OC)c(=O)n(C)c2cnc(Nc3ccc(C(=O)NC4CCN(C)CC4)cc3OC)nc12 [Example 46, 4-[(8-ethynyl-7-methoxy-5-methyl-6-oxo-5,6-dihydropyrido[3,2-d]pyri-midin-2-yl)amino]-3-methoxy-N-(1-methylpiperidin-4-yl)benzamide] | < 100
C=C(C)c1c(OC)c(=O)n(C)c2cnc(Nc3ccc(C(=O)NC4CCN(C)CC4)cc3OC)nc12 [Example 22, 4-[(8-isopropenyl-7-methoxy-5-methyl-6-oxo-5,6-dihydropyrido[3,2-d]pyrimidin-2-yl)amino]-3-methoxy-N-(1-methylpiperidin-4-yl)benzamide] | < 100
C/C=C/c1c(OC)c(=O)n(C)c2cnc(Nc3ccc(C(=O)NC4CCN(C)CC4)cc3OC)nc12 [Example 2, 3-methoxy-4-({7-methoxy-5-methyl-6-oxo-8-[(E)-prop-1-en-1-yl]-5,6-dihydropyrido[3,2-d]pyrimidin-2-yl}amino)-N-(1-methylpiperidin-4-yl)benzamide] | < 100
COc1cc(C(=O)NCC2CCN(C)CC2)ccc1Nc1ncc2c(n1)c(-c1ccsc1)c(OCC1CC1)c(=O)n2C [Example 48, 4-{[7-(cyclopropylmethoxy)-5-methyl-6-oxo-8-(3-thienyl)-5,6-dihydro-pyrido[3,2-d]pyrimidin-2-yl]amino}-3-methoxy-N-[(1-methylpiperidin-4-yl)methyl] benzamide] | < 10
COc1cc(C(=O)NC2CCN(C)CC2)ccc1Nc1ncc2c(n1)c(-c1ccc(F)cc1)c(OCC1CC1)c(=O)n2C [Example 52, 4-{[7-(cyclopropylmethoxy)-8-(4-fluorophenyl)-5-methyl-6-oxo-5,6-dihydropyrido[3,2-d]pyrimidin-2-yl]amino}-3-methoxy-N-(1-methylpiperidin-4-yl)benzamide] | < 10
C/C=C/c1c(OC2CCC2)c(=O)n(C)c2cnc(Nc3ccc(C(=O)NC4CCN(C)CC4)cc3OC)nc12 [Example 43, 4-({7-(cyclobutyloxy)-5-methyl-6-oxo-8-[(1E)-prop-1-en-1-yl]-5,6-dihydropyrido[3,2-d]pyrimidin-2-yl}amino)-3-methoxy-N-(1-methylpiperidin-4-yl)benzamide] | < 10
COc1cc(C(=O)NC2CCN(C)CC2)ccc1Nc1ncc2c(n1)c(CC1=CCOC1)c(OC)c(=O)n2C [Example 23, 4-{[8-(2,5-dihydrofuran-3-ylmethyl)-7-methoxy-5-methyl-6-oxo-5,6-dihydropyrido[3,2-d]pyrimidin-2-yl]amino}-3-methoxy-N-(1-methylpiperidin-4-yl)benzamide] | < 1000
